From BindingDB's records for doi:10.1021/jm058205b (Johnson & Johnson Pharmaceutical, 2005)

Each compound was assayed against Vascular endothelial growth factor receptor 2 (Rattus norvegicus, UniProt O08775) (assay: Kinase Inhibition Assay). Conditions: not given.
Protocol: (§1) The enzyme was assayed with a biotinylated peptide substrate and test compounds in the presence of 5 uM ATP/[gamma-33P]ATP in a streptavidin coated FlashPlate (Perkin-Elmer, Boston, MA). Inhibition of the enzymatic activity due to the compound was measured by observing a reduced amount of 33P-gamma-ATP incorporated into the immobilized peptide relative to untreated controls. Linear regression analysis of the percent of inhibition by the test compound was used to calculate IC50 values.

Chain of Vascular endothelial growth factor receptor 2 (O08775 whole entry): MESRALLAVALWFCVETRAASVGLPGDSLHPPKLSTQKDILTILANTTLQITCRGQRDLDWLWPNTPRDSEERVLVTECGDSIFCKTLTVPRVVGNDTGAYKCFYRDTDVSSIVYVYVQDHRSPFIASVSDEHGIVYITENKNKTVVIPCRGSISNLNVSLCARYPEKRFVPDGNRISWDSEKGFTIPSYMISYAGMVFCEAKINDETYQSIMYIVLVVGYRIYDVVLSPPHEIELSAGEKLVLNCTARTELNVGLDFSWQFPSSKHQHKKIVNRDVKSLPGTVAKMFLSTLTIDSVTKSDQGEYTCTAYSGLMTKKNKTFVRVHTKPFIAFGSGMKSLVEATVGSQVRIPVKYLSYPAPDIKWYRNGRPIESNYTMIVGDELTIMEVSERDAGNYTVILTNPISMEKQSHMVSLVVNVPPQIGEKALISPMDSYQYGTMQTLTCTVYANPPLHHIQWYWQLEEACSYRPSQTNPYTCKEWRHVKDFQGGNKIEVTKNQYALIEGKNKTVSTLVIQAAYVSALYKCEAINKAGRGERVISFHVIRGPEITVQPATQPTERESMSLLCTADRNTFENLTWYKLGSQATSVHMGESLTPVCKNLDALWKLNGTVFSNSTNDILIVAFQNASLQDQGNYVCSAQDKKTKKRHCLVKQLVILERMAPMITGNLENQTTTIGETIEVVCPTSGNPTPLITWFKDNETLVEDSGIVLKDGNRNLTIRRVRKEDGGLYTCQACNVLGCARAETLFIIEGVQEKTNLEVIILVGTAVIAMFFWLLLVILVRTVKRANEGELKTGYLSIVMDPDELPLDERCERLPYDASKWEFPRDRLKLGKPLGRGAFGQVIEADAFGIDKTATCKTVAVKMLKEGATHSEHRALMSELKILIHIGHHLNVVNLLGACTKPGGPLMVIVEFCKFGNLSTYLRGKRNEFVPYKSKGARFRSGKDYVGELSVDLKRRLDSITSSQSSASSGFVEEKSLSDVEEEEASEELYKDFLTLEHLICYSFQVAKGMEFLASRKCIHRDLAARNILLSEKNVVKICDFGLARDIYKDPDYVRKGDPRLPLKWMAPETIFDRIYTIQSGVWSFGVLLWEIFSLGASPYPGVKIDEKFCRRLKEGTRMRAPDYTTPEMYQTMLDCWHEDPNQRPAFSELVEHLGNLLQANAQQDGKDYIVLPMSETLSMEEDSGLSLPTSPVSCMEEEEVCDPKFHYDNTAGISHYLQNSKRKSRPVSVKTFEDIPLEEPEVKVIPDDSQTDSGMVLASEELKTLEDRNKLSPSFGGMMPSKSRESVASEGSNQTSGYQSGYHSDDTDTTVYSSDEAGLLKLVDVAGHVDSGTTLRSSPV

SMILES	IC50 [µM]
CN(C)c1ccc(C(=O)Nc2cncc(-c3cncc(Nc4cccc(Cl)c4)n3)c2)cc1 [N-(5-{6-[(3-chlorophenyl)amino]pyrazin-2-yl}pyridin-3-yl)-4-(dimethylamino)benzamide]	> 10

What follows are compounds tested against Platelet-derived growth factor receptor beta (Homo sapiens, UniProt P09619) (assay: Kinase Inhibition Assay). Conditions: not given.
Chain of Platelet-derived growth factor receptor beta (P09619 whole entry): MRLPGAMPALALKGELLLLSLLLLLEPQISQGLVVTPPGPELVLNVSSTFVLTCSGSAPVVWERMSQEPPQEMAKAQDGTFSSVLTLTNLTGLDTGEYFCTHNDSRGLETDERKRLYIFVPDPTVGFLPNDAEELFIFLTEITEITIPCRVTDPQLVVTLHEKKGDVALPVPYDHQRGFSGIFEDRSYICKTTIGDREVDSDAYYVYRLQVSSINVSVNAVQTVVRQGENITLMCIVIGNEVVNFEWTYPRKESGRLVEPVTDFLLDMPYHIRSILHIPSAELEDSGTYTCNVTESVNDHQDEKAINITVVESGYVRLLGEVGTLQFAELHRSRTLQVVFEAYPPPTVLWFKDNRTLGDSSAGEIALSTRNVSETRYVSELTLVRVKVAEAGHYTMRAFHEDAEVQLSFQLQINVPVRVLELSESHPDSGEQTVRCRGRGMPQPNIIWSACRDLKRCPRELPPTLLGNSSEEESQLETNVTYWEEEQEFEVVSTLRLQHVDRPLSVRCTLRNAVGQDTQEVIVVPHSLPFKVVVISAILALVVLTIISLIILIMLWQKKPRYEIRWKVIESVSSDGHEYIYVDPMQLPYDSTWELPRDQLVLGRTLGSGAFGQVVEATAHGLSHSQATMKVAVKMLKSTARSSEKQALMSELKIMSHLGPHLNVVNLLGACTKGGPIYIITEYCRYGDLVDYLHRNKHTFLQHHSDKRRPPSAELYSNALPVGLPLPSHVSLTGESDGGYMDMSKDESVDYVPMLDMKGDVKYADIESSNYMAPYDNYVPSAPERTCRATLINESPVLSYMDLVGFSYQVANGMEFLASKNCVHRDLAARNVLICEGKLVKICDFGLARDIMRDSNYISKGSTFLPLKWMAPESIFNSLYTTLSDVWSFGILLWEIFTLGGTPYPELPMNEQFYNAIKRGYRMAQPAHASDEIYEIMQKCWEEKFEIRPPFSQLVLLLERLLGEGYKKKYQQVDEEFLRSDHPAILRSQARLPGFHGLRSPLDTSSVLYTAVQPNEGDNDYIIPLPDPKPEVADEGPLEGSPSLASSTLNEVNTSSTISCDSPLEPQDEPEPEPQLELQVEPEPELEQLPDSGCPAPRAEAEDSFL
Protocol: as §1

SMILES	IC50 [µM]
CN(C)CCNc1cncc(-c2cncc(Nc3cccc(Cl)c3)n2)c1 [N-{5-[6-(3-Chloro-phenylamino)-pyrazin-2-yl]-pyridin-3-yl}-N ,N -dimethyl-ethane-1,2-diamine]	> 10

The compounds below were run against Cyclin-dependent kinase/G2/mitotic-specific cyclin- 1 (Homo sapiens, UniProt P06493) (assay: Kinase Inhibition Assay). Conditions: not given.
Chain of Cyclin-dependent kinase/G2/mitotic-specific cyclin- 1 (P06493 whole entry): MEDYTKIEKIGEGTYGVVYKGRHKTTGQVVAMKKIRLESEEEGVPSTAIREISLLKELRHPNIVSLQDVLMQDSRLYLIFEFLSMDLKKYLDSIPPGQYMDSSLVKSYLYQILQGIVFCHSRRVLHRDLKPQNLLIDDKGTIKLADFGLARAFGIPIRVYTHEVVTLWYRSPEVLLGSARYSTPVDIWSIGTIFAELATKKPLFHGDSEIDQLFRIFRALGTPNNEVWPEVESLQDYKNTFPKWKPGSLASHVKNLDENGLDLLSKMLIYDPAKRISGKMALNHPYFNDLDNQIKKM
Chain of Cyclin-dependent kinase/G2/mitotic-specific cyclin- 1 (P14635 whole entry, further chain): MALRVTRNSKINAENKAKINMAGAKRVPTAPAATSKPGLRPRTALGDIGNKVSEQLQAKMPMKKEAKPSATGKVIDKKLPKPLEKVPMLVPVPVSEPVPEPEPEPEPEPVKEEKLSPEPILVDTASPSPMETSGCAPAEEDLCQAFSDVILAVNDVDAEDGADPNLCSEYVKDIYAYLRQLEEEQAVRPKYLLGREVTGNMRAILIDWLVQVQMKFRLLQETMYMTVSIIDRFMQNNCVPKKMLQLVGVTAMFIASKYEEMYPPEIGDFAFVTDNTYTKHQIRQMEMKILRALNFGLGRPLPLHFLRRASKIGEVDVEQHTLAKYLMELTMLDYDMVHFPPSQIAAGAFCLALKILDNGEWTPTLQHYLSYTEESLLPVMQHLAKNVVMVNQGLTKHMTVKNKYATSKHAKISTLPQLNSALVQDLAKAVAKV
Protocol: as §1

SMILES	IC50 [µM]
CN(C)c1ccc(C(=O)Nc2cncc(-c3cncc(Nc4cccc(Cl)c4)n3)c2)cc1 [N-(5-{6-[(3-chlorophenyl)amino]pyrazin-2-yl}pyridin-3-yl)-4-(dimethylamino)benzamide]	> 10
O=C(NCCCO)c1cncc(-c2cncc(Nc3cccc(Cl)c3)n2)c1 [5-[6-(3-Chloro-phenylamino)-pyrazin-2-yl]-N-(3-hydroxy-propyl)-nicotinamide]	> 10
Clc1cccc(Nc2cncc(-c3cncc(NCCCc4ccccc4)c3)n2)c1 [N-(3-chlorophenyl)-6-{5-[(3-phenylpropyl)amino]pyridin-3-yl}pyrazin-2-amine]	> 10
COCC(=O)Nc1cncc(-c2cncc(Nc3cccc(Cl)c3)n2)c1 [N-{5-[6-(3-Chloro-phenylamino)-pyrazin-2-yl]-pyridin-3-yl}-2-methoxy-acetamide]	> 10
Clc1cccc(Nc2cncc(-c3cncc(NCCCN4CCOCC4)c3)n2)c1 [N-[5-[6-[(3-Chlorophenyl)amino]pyrazinyl]-3-pyridinyl]-4-morpholinepropanamine]	> 10
O=C(CO)Nc1cncc(-c2cncc(Nc3cccc(Cl)c3)n2)c1 [N-{5-[6-(3-Chloro-phenylamino)-pyrazin-2-yl]-pyridin-3-yl}-2-hydroxy-acetamide]	> 10
CN(C)CCNc1cncc(-c2cncc(Nc3cccc(Cl)c3)n2)c1 [N-{5-[6-(3-Chloro-phenylamino)-pyrazin-2-yl]-pyridin-3-yl}-N ,N -dimethyl-ethane-1,2-diamine]	> 10
Clc1cccc(Nc2cncc(-c3cncc(NCC4CCOCC4)c3)n2)c1 [N-(3-chlorophenyl)-6-{5-[(oxan-4-ylmethyl)amino]pyridin-3-yl}pyrazin-2-amine]	> 10
OCCCNc1cnc(Cl)c(-c2cncc(Nc3cccc(Cl)c3)n2)c1 [3-[(6-chloro-5-{6-[(3-chlorophenyl)amino]pyrazin-2-yl}pyridin-3-yl)amino]propan-1-ol]	> 10
Clc1cccc(Nc2cncc(-c3cncc(NCCCn4cncn4)c3)n2)c1 [N-(3-chlorophenyl)-6-(5-{[3-(1H-1,2,4-triazol-1-yl)propyl]amino}pyridin-3-yl)pyrazin-2-amine]	> 10
O=C(COc1ccccc1)Nc1cncc(-c2cncc(Nc3cccc(Cl)c3)n2)c1 [N-{5-[6-(3-Chloro-phenylamino)-pyrazin-2-yl]-pyridin-3-yl}-2-phenoxy-acetamide]	> 10
O=C(CCCNc1cncc(-c2cncc(Nc3cccc(Cl)c3)n2)c1)N1CCCCC1 [4-[(5-{6-[(3-chlorophenyl)amino]pyrazin-2-yl}pyridin-3-yl)amino]-1-(piperidin-1-yl)butan-1-one]	> 10
OCCCCNc1cncc(-c2cncc(Nc3cccc(Cl)c3)n2)c1 [4-[(5-{6-[(3-chlorophenyl)amino]pyrazin-2-yl}pyridin-3-yl)amino]butan-1-ol]	> 10
CN(C)CCCNc1cncc(-c2cncc(Nc3cccc(Cl)c3)n2)c1 [N-(3-chlorophenyl)-6-(5-{[3-(dimethylamino)propyl]amino}pyridin-3-yl)pyrazin-2-amine]	> 10
Clc1cccc(Nc2cncc(-c3cncc(NCCCn4cccn4)c3)n2)c1 [N-(3-Chlorophenyl)-6-[5-[[3-(1H-pyrazol-1-yl)propyl]-amino]-3-pyridinyl]-2-pyrazinamine]	> 10
OCCNc1cncc(-c2cncc(Nc3cccc(Cl)c3)n2)c1 [2-{5-[6-(3-Chloro-phenylamino)-pyrazin-2-yl]-pyridin-3-ylamino}-ethanol]	> 10
OCCCNc1cncc(-c2cncc(Nc3cccc(Cl)c3)n2)c1 [3-[[5-[6-[(3-chlorophenyl)amino]pyrazinyl]-3-pyridinyl]amino]-1-propanol]	> 10
Clc1cccc(Nc2cncc(-c3cncc(NCCOc4ccccc4)c3)n2)c1 [(3-Chloro-phenyl)-{6-[5-(2-phenoxy-ethylamino)-pyridin-3-yl]-pyrazin-2-yl}-amine]	> 10
OCCCNc1cnc(F)c(-c2cncc(Nc3cccc(Cl)c3)n2)c1 [3-{5-[6-(3-Chloro-phenylamino)-pyrazin-2-yl]-6-fluoropyridin-3-ylamino}-propan-1-ol]	> 10
Nc1ncc(NCCCO)cc1-c1cncc(Nc2cccc(Cl)c2)n1 [3-[(6-amino-5-{6-[(3-chlorophenyl)amino]pyrazin-2-yl}pyridin-3-yl)amino]propan-1-ol]	> 10
CN1CCN(CCCNc2cncc(-c3cncc(Nc4cccc(Cl)c4)n3)c2)CC1 [N-(3-chlorophenyl)-6-(5-{[3-(4-methylpiperazin-1-yl)propyl]amino}pyridin-3-yl)pyrazin-2-amine]	> 10
O=C(COCc1ccccc1)Nc1cncc(-c2cncc(Nc3cccc(Cl)c3)n2)c1 [N-{5-[6-(3-Chloro-phenylamino)-pyrazin-2-yl]-pyridin-3-yl}-2-benzyloxy-acetamide]	> 10
COCCC(=O)Nc1cncc(-c2cncc(Nc3cccc(Cl)c3)n2)c1 [N-(5-{6-[(3-chlorophenyl)amino]pyrazin-2-yl}pyridin-3-yl)-3-methoxypropanamide]	> 10

Same assay, conditions: pH 8; 30 °C

SMILES	IC50 [µM]
OCCCNc1cncc(-c2cncc(Oc3cccc(Cl)c3)n2)c1 [3-({5-[6-(3-chlorophenoxy)pyrazin-2-yl]pyridin-3-yl}amino)propan-1-ol]	> 10
Clc1ccc(Nc2cncc(-c3cncc(NCCCc4ccncc4)c3)n2)cc1 [(4-Chloro-phenyl)-{6-[5-(3-pyridin-4-yl-propylamino)pyridin-3-yl]-pyrazin-2-yl}-amine]	> 10
COc1cccc(Nc2cncc(-c3cncc(NCCCO)c3)n2)c1 [3-[[5-[6-[(3-Methoxyphenyl)amino]pyrazinyl]-3-pyridinyl]-1-propanol]	> 10
Clc1cccc(Nc2cncc(-c3cncc(NCCCc4ccncc4)c3)n2)c1 [N-(3-chlorophenyl)-6-(5-{[3-(pyridin-4-yl)propyl]amino}pyridin-3-yl)pyrazin-2-amine]	> 10
Clc1ccc(Nc2cncc(-c3cncc(NCCCc4ccncc4)c3)n2)cc1Cl [N-(3,4-dichlorophenyl)-6-(5-{[3-(pyridin-4-yl)propyl]amino}pyridin-3-yl)pyrazin-2-amine]	> 10
Nc1cncc(-c2cncc(Nc3cccc(Cl)c3)n2)c1 [[6-(5-Amino-pyridin-3-yl)-pyrazin-2-yl]-(3-chloro-phenyl)-amine]	> 10
OCCCNc1cncc(-c2cncc(Nc3cccc(F)c3)n2)c1 [3-[(5-{6-[(3-fluorophenyl)amino]pyrazin-2-yl}pyridin-3-yl)amino]propan-1-ol]	> 10
OCCCNc1cncc(-c2cncc(NCc3ccccc3)n2)c1 [3-[5-(6-Benzylamino-pyrazin-2-yl)-pyridin-3-yl-amino]-propan-1-ol]	> 10
OCCCNc1cncc(-c2cncc(Nc3ccccc3Cl)n2)c1 [3-{5-[6-(2-Chloro-phenylamino)-pyrazin-2-yl]-pyridin-3-ylamino}-propan-1-ol]	> 10

Each compound was assayed against T1, Glycogen synthase kinase-3 beta [7-25] (Oryctolagus cuniculus, UniProt G1T8E2) (assay: Kinase Inhibition Assay). Conditions: not given.
T1 construct: 7-25
Protocol: as §1

SMILES	IC50 [µM]
CN(C)CCNc1cncc(-c2cncc(Nc3cccc(Cl)c3)n2)c1 [N-{5-[6-(3-Chloro-phenylamino)-pyrazin-2-yl]-pyridin-3-yl}-N ,N -dimethyl-ethane-1,2-diamine]	> 10
